Assay results as given in US20070004039A1, “Immortalized hepatocytes” (Multicell Technologies, Inc., priority 2003, published 2007).
Read-outs that look alike come from different tables or passages of the source.

Legend:
[1] = system: Fa2N-4 cells and primary human hepatocytes
[2] = system: CYP3A4; conditions: human
[3] = system: CYP2B6; conditions: cited from earlier work
[4] = system: MDR1 (P-glycoprotein); assay: Invader assay MDR1 mRNA induction in Fa2N-4 cells; assay type: cell-based, human; conditions: 48 hours
[5] = system: CYP1A2; assay: CYP1A2 activity induction in Fa2N-4 cells (phenacetin, LC/MS/MS); assay type: cell-based, human
[6] = system: Fa2N-4 cells and primary human hepatocytes; assay: Toxicity by LDH release and resazurin reduction, Fa2N-4 cells compared with primary human hepatocytes; conditions: Same or Different toxicity response in the two cell types
[7] = system: albumin; assay: Effect of dexamethasone on albumin secretion by Fa2N-4 cells (ELISA); assay type: cell-based, human; conditions: Fa2N-4 (passage 32); dexamethasone 1.0 μM; 48 hrs
[8] = system: CYP3A4; conditions: human; remark: listed apart in the source
[9] = system: Fa2N-4 cells; assay: α-GST release toxicity test in Fa2N-4 cells (FIG. 22); conditions: 72-hour exposure, up to 100 μM
[10] = system: CYP1A2
[11] = system: CYP1A2; conditions: cited from earlier work
[12] = system: UGT1A; assay: Invader assay UGT1A mRNA induction in Fa2N-4 cells; assay type: cell-based, human; conditions: 48 hours
[13] = system: CYP3A4
[14] = activity based on 7-ethoxy-4-trifluoromethylcoumarin O-dealkylation
[15] = activity based on S-mephenytoin N-demethylation

NC(=O)OCC(COC(N)=O)c1ccccc1 [Felbamate]
Cellular Response (Fa2N-4 cells compared with primary human hepatocytes) [1]: Same | Non-toxic Compound / Toxic Compound [1]: Felbamate

Clc1ccccc1C(c1ccccc1)(c1ccccc1)n1ccnc1 [clotrimazole]
CYP3A4 activity induction (FIG. 20) [2]: CYP3A4 induction is masked by its inhibitory effect

CC1=CC(=O)c2ccccc2C1=O [Menadione]
Cellular Response (Fa2N-4 cells compared with primary human hepatocytes) [1]: Different | Non-toxic Compound / Toxic Compound [1]: Toxic | sensitivity of Fa2N-4 cells relative to primary hepatocytes [1]: less sensitive

c1ccc2c(c1)cc1ccc3cccc4ccc2c1c34 [Benzo[a]pyrene]
Cellular Response (Fa2N-4 cells compared with primary human hepatocytes) [1]: Different | Non-toxic Compound / Toxic Compound [1]: Toxic | sensitivity of Fa2N-4 cells relative to primary hepatocytes [1]: more sensitive than primary hepatocytes

CCCN(CCC)S(=O)(=O)c1ccc(C(=O)O)cc1 [Probenicid]
Cellular Response (Fa2N-4 cells compared with primary human hepatocytes) [1]: Same | Non-toxic Compound / Toxic Compound [1]: Probenicid

CO[C@H]1C[C@H](O[C@H]2[C@H](C)[C@@H](O[C@@H]3O[C@H](C)C[C@H](N(C)C)[C@H]3OC(C)=O)[C@@H](C)C[C@@]3(CO3)C(=O)[C@H](C)[C@@H](OC(C)=O)[C@@H](C)[C@@H](C)OC(=O)[C@@H]2C)O[C@@H](C)[C@@H]1OC(C)=O [Troleandomycin]
Cellular Response (Fa2N-4 cells compared with primary human hepatocytes) [1]: Same | Non-toxic Compound / Toxic Compound [1]: Troleandomycin

O=C1Nc2ccc(Cl)cc2[C@@](C#CC2CC2)(C(F)(F)F)O1 [Efavirenz]
Cellular Response (Fa2N-4 cells compared with primary human hepatocytes) [1]: Same | Non-toxic Compound / Toxic Compound [1]: Efavirenz

NC(=O)N1c2ccccc2C=Cc2ccccc21 [Carbamazepine]
Cellular Response (Fa2N-4 cells compared with primary human hepatocytes) [1]: Same | Non-toxic Compound / Toxic Compound [1]: Carbamazepine

O=C1NC(=O)C(c2ccccc2)(c2ccccc2)N1 [Phenytoin]
Cellular Response (Fa2N-4 cells compared with primary human hepatocytes) [1]: Same | Non-toxic Compound / Toxic Compound [1]: Phenytoin

CO[C@H]1/C=C/O[C@@]2(C)Oc3c(C)c(O)c4c(O)c(c(/C=N/N5CCN(C)CC5)c(O)c4c3C2=O)NC(=O)/C(C)=C\C=C\[C@H](C)[C@H](O)[C@@H](C)[C@@H](O)[C@@H](C)[C@H](OC(C)=O)[C@@H]1C [Rifampin]
Cellular Response (Fa2N-4 cells compared with primary human hepatocytes) [1]: Same | Human hepatocytes Average induction, CYP2B6 [3, 14]: 4.1 fold | Human hepatocytes Median induction, CYP2B6 [3, 14]: 2.9 fold | Human hepatocytes induction (range), CYP2B6 [3, 14]: ≤ 14 fold | Human hepatocytes Average induction, CYP2B6 [3, 15]: 13 fold | Human hepatocytes Median induction, CYP2B6 [3, 15]: 8.5 fold | Human hepatocytes induction (range), CYP2B6 [3, 15]: ≤ 71 fold | MDR1 (P-glycoprotein) mRNA induction [4]: 3 fold

Cc1c(C)c2c(c(C)c1O)CCC(C)(COc1ccc(CC3SC(=O)NC3=O)cc1)O2 (stereo not shown) [Troglitazone]
Cellular Response (Fa2N-4 cells compared with primary human hepatocytes) [1]: Different | Non-toxic Compound / Toxic Compound [1]: Toxic | sensitivity of Fa2N-4 cells relative to primary hepatocytes [1]: more sensitive than primary hepatocytes

COc1ccc2[nH]c([S+]([O-])Cc3ncc(C)c(OC)c3C)nc2c1 (stereo not shown) [Omeprazole]
induction of CYP1A2 activity ([5]; Fa2N-4, 6-well plates, 100 μM omeprazole): marked induction | CYP1A2 activity induction over control ([5]; Fa2N-4, 6-, 12-, 24- and 96-well format, all cases): at least 9 fold | Fa2N-4 Average induction, CYP1A2 ([5]; Fa2N-4 cells): 20 fold | Fa2N-4 induction (range), CYP1A2 ([5]; Fa2N-4 cells): (9.3-29) fold | Cellular Response (Fa2N-4 cells compared with primary human hepatocytes) [1]: Same | Non-toxic Compound / Toxic Compound [1]: Omeprazole

CN(Cc1cnc2nc(N)nc(N)c2n1)c1ccc(C(=O)N[C@@H](CCC(=O)O)C(=O)O)cc1 [Methotrexate]
Cellular Response (Fa2N-4 cells compared with primary human hepatocytes) [1]: Same | Non-toxic Compound / Toxic Compound [1]: Methotrexate

C=C(C)[C@H]1Cc2c(ccc3c2O[C@@H]2COc4cc(OC)c(OC)cc4[C@@H]2C3=O)O1 [Rotenone]
Cellular Response (Fa2N-4 cells compared with primary human hepatocytes) [6]: Same

C[C@@H]1C[C@H]2[C@@H]3CCC4=CC(=O)C=C[C@]4(C)[C@@]3(F)[C@@H](O)C[C@]2(C)[C@@]1(O)C(=O)CO [Dexamethasone]
Albumin [7]: 100.0 µg/mL

CCC1(c2ccccc2)C(=O)NC(=O)NC1=O [Phenobarbital]
production of the 6-β testosterone metabolite [8]: weaker CYP3A4 inducers | Cellular Response (Fa2N-4 cells compared with primary human hepatocytes) [6]: Same

Cc1c(OCC(F)(F)F)ccnc1C[S+]([O-])c1nc2ccccc2[nH]1 (stereo not shown) [Lansoprazole]
Cellular Response (Fa2N-4 cells compared with primary human hepatocytes) [1]: Same | Non-toxic Compound / Toxic Compound [1]: Lansoprazole

Cc1ccc2cc3c(ccc4ccccc43)c3c2c1CC3 [3-Methylcholanthrene]
release of α-GST into the medium [9]: caused a loss of membrane integrity | Cellular Response (Fa2N-4 cells compared with primary human hepatocytes) [6]: Same

O=c1cc(-c2ccccc2)oc2ccc3ccccc3c12 [BNF, β-naphthoflavone]
Fa2N-4 cells Fold-increase, CYP1A2 [10]: 1.5 fold | Human hepatocytes Average induction, CYP1A2 [11]: 13 fold | Human hepatocytes Median induction, CYP1A2 [11]: 8.4 fold | Human hepatocytes induction (range), CYP1A2 [11]: (2-56) fold | Primary cells Fold-increase, CYP1A2 ([11]; hepatocytes): 13 fold | UGT1A mRNA induction [12]: 2 fold | expression of CYP3A4 protein (immunoblot) [13]: does not induce CYP3A4 protein expression

CC1(COc2ccc(CC3SC(=O)NC3=O)cc2)CCCCC1 (stereo not shown) [Ciglitazone]
Cellular Response (Fa2N-4 cells compared with primary human hepatocytes) [1]: Same | Non-toxic Compound / Toxic Compound [1]: Ciglitazone
